Experimental findings from patent US8449930B2, “Drug or dermatological composition containing an avocado peptide extract for treating and preventing pruritus” (Laboratoires Expanscience, priority 2008, dated 2013) are described below.

Type in all cases: cell-based
Experiment [1] concerns Rat peritoneal mast cells. As to the kind of experiment: Release of histamine by mast cells induced by substance P. The method, then:
(§1) The studies presented below were carried out on rat peritoneal mast cells. These cells have the same features as cutaneous mast cells and thus constitute an experimental model representative of human skin.
Rat peritoneal mast cells (10,000 cells in suspension/250 μl Tyrode's buffer) were incubated for […] at 37° C. in the presence or absence of 0.05%, 0.5% and 1% (w/v) avocado peptide extract, obtained in example 1, or 10 mM calcium, used as the reference histamine release inhibitor.
The cells were then stimulated for 10 minutes by 10 μM substance P (Neosystem) in the presence of 0.3 mM calcium.
The reaction was quenched by centrifugation and the supernatants and cell pellets were taken up in 0.8 N perchloric acid in order to assay histamine using the spectrofluorometric method.
The quantities of histamine released were expressed as a percentage of release (quantity in supernatants/total quantity).

In experiment [2] the test system is Normal human epidermal keratinocytes (NHEK). Briefly: Synthesis of GAGs by keratinocytes (35S-sulfate incorporation). The following applies: 72 hours. Here is the method: (§2) Normal human epidermal keratinocytes (NHEK) were pre-cultured for 24 hours at 37° C. and 5% CO2 in low-calcium (0.09 mM) SFM (Invitrogen) medium supplemented with 0.25 ng/ml EGF (Invitrogen), 25 μg/ml pituitary extract (Invitrogen) and 25 μg/ml gentamycin (Sigma).
(§3) The keratinocytes were then treated for 72 hours with the avocado peptide extract (0.05% DM and 0.005% DM), according to example 1, or by the references: 0.1 μM retinoic acid (Sigma) or 1.5 mM calcium (Prolabo). Two identical series were prepared in order to assay both the release/production of hyaluronic acid and the incorporation of […] in the GAGs fraction. The batch corresponding to the assay of the GAGs was supplemented with ^35S-sulfate (Amersham) after 48 hours of culture (labeling during the last 24 hours).
At the end of the treatment, in the batch corresponding to the assay of GAGs, the incorporated radioactivity was counted and thus the variation in the synthesis of GAGs in relation to the control was analyzed.
(§4) Intergroup comparisons were carried out by analysis of variance using Dunnett's multiple comparison test.

The subject of experiment [3] is Rat peritoneal mast cells. Briefly: Release of tryptase by mast cells induced by calcium ionophore A23187. The note with it: 50 μM quercetin. The method, then: as §1
Rat peritoneal mast cells (2×10^3 cells/ml) were incubated for 30 minutes at 37° C. in the presence or absence of 0.005% (w/v) avocado peptide extract (obtained in example 1) or 50 μM quercetin (Sigma), the reference tryptase release inhibitor. The cells were then stimulated for 15 minutes by 0.5 μM calcium ionophore A23187 (Millipore). The calcium ionophore is used to induce the release of tryptase (it induces an influx and mobilization of intracellular calcium). The reaction was quenched by centrifugation at 4° C.
Tryptase release was evaluated by assaying tryptase in the cell pellets and supernatants by means of the Mast Cell Degranulation Assay Kit (Millipore). This test is based on the spectrophotometric detection of the chromophore p-nitroaniline (pNA) after cleavage of the tosyl-gly-pro-lys-pNA substrate by tryptase.

For experiment [4], the system named is Normal human epidermal keratinocytes (NHEK). Briefly: Synthesis/release of hyaluronic acid by keratinocytes (ELISA). The following applies: 0.1 μM retinoic acid, 72 hours, culture supernatants. The method, then:
as §2, §3
In the batch corresponding to the assay of hyaluronic acid, at the end of the treatment, the culture supernatants were collected and hyaluronic acid was assayed using a specific modified ELISA test (Biogenic).
as §4

The next experiment deals with PAR-2. Briefly: PAR-2 gene expression in reconstructed epidermises (cDNA arrays). The following applies: 1 μM retinoic acid, 6 hours. Here is the method:
Seventeen-day reconstructed epidermises (Skinethic) were treated systemically with 0.04% (w/v) avocado peptide extract (obtained in example 1) or 1 μM retinoic acid (Sigma, positive reference) for 6 hours.
Gene expression was analyzed using standard simplified DNA arrays. These microarrays involved spotting specific cDNA markers of interest on nylon membranes. Analysis was carried out according to a suitable miniaturized and optimized technology based on the use of messenger RNA and ^33P labeling.
When culturing was complete, the epidermises were rinsed with phosphate buffered saline (PBS) solution. The total RNA of the epidermises was then extracted and purified using TRI Reagent (Sigma) according to a standardized protocol. RNA quantity and quality were then evaluated using an Agilent 2100 bioanalyzer. The mRNA of each culture was reverse transcribed using oligo(dT) and a ^33P-labeled deoxyribonucleotide triphosphate. Multiple labeled cDNA “target” sequences were prepared for each culture. These targets were then hybridized, under optimized conditions, with cDNA “probes” in excess bound to membranes. After washing, the relative quantity of labeled target was measured by direct counting using a Phosphorlmager.
The membranes were analyzed using suitable software.

For `[Ca+2]` [calcium], the “Histamine (% release) Mean” value in experiment [1] (10 mM calcium (reference inhibitor), stimulated 10 min by 10 μM substance P) turned out to be 16 % release. In experiment [1] (calcium, 10 μM in table 8, 10 mM in text, vs stimulated control (substance P)), the “Percentage inhibition of histamine release” value is given as −78%. Also, the “Incorporation of 35S-sulfate (cpm)” value in experiment [2] (1.5 mM calcium) was determined as 17753 cpm.
One may read the inhibition as how much of the control response was suppressed. With `O=c1c(O)c(-c2ccc(O)c(O)c2)oc2cc(O)cc(O)c12` [quercetin], the “Tryptase (ng/ml) Mean” value in experiment [3] (30 min preincubation, stimulated 15 min by 0.5 μM calcium ionophore A23187) came to 44 ng/mL. Besides, the inhibition at 50 µM in experiment [3] (Rattus norvegicus, Mast cell, vs stimulated control (Ca ionophore), read-out: Percentage inhibition of tryptase release) is 47%.
In the case of `CC1=C(/C=C/C(C)=C/C=C/C(C)=C/C(=O)O)C(C)(C)CCC1` [retinoic acid], in experiment [2] (0.1 μM retinoic acid), the “Incorporation of 35S-sulfate (cpm)” value is recorded as 13217 cpm and the “Percentage (change in synthesis of GAGs vs control cells)” value was “+18%”. Besides, the “HA” value in experiment [4] stood at 11503 ng/mL. Also, in the experiment on PAR-2 (systemic treatment), the “PAR-2 (relative expression) Mean” value was found to be 3. Further, the “Percentage inhibition of PAR-2 gene expression” value in the experiment on PAR-2 (vs control epidermises) is −29%.
